From US20180028516A1, “METHODS AND DEVICES FOR THE TREATMENT OF OCULAR DISEASES IN HUMAN SUBJECTS” (CLEARSIDE BIOMEDICAL, INC., priority 2012, published 2018)
“Also recorded” adds a separate entry of the source.

Columns and labels:
[1] = Ocular safety and histopathology after SCS TA (Example 8); type: in vivo, pigmented rabbits; conditions: SCS TA by microneedle, up to 120 days
Experimental: in this study, the total amount of triamcinolone acetonide (TA) delivered into live pigmented rabbit eyes when injected, into the suprachoroidal space using a hollow microneedle or into the vitreous using a standard 30 gauge needle was compared.
On Day 0, pigmented rabbits were injected with either intravitreal or bilateral suprachoroidal injections of 2 mg/100 μl TA Triesence® (TA; Alcon Labs). intravitreal injections were performed using a 30 g needle (Becton-Dickinson) and suprachoroidal injections were performed using a 33 g 750 μm microneedle. The residual amount of TA present in the syringe/needle assembly after injection was determined by RP-HPLC. Clinical observations, slit lamp biomicroscopy with McDonald-Shadduck scoring, intraocular pressure assessment (IOP), electroretinography (ERG), and systemic exposure were assessed up to 120 days post-dose. Animals were sacrificed at 30 minutes, 7 days, 30 days, 60 days, and 120 days for macroscopic observations, ocular toxicokinetics, and ocular histopathology.

[2] = Plasma and ocular matrix toxicokinetics after SCS TA, LC-MS/MS (Example 9); type: in vivo, New Zealand White rabbit
Experimental: On Day 0, New Zealand White (NZW) rabbits were administered a single bilateral supraehoroidal injection of vehicle, 3.2 mg (80 μL) or 5.2 mg (130 μL) of TA (Triesence®, Alcoa labs) using a 33 g 750 μm microneedle. Clinical observations, slit lamp biomicroscopy with McDonald-Shadduck scoring, intraocular pressure assessment (IOP), electroretinography (ERG), and systemic exposure were assessed up to 26 weeks post-dose. Animals were sacrificed on Day 1, Week 13, and Week 26 for macroscopic observations, ocular toxicokinetics, and ocular histopathology.
Plasma and oct lar matrixes (aqueous humor (AH), lens, iris/ciliary body (ICB), vitreous humor (VH), sclera/choroid (SC), and retina) were sampled on Days 1, 14, 28, and 60. Plasma (LLOQ 0.5 ng/mL) and ocular matrixes (LLOQ 2-15 ng/mL) were analyzed using LC-MS/MS, and resulting data were assessed for noncompartmental PK parameters. Systemic exposure to TA was minimal (FIG. 20C).

[3] = Intraocular pressure and tolerability in porcine uveitis study (Example 13); type: in vivo, domestic weanling pigs
Experimental: Intraocular pressure (IOP) was measured at −6, −4, −1, 0, 1, 2, and 3 days using a TonoVet Tonometer (Care, Finland). In addition, IOP was measured 1, 3, and 6 hours after SCS or IVT injections on Day 0. The measurements were collected without use of topical anesthetic, per manufacturer recommendation. Conditioning of the pigs during acclimation permitted routine ocular examinations and IOP measurements to he done with minimal manual restraint. The tip of the tonometer probe was directed to contact the central cornea and 6 measurements were made consecutively. After the six measurements, the mean IOP was shown on the display providing the IOP that was recorded.

[4] = test system: LPS-induced acute posterior uveitis; experiment: Wide-field ocular fundus digital photography in porcine uveitis study (Example 13); type: in vivo, domestic weanling pigs; conditions: 3 days after treatment
Source text: On study days −1, 0 and 3, with the animals anesthetized arid pupils dilated with tropicamide 1%, the ocular fundus was photographed using standardized illumination and focus by a wide-field digital imaging system (Retcam II, Clarity Medical Systems, Pleasanton, Calif.).

[5] = Optical coherence tomography, retinal thickness (Example 13); type: in vivo, domestic weanling pigs; conditions: all groups, prior to or following the injections
Source text: Following wide-field ocular tlindus photography on Days −1, 0, and 3, the central retina was imaged with spectral-domain optical coherence tomography (SD-OCT) (Bioptigen SDOCT EnVisu Ophthalmic Imaging System, Durham, N.C.) using 6 imaging protocols (including rectangular volume scans of 6, 8, and 12 mm, and doppler rectangular volume).

[6] = test system: LPS-induced acute posterior uveitis; experiment: Ocular histopathology and histologic inflammatory scores in porcine uveitis study (Example 13); type: in vivo
Experimental: Pigs were euthanized on study day 3 after clinical scoring, OCT, ERG, and wide-field ocular fundus photography was completed. After euthanasia with an overdose of intravenous barbiturate, both eyes were removed, Aqueous humor (All) was aspirated and a 1 mL sample of vitreous humor (VH) was collected from each eye immediately after euthanasia. The globe was then fixed in Davidson's solution for 24 hours, followed by alcohol. Central, saggital sections of each globe, including the optic nerve, were stained with hematoxylin and eosin and examined by light microscopy. Two pathology-trained observers, masked to the study groups, graded degree of inflammatory infiltrate of the ocular anterior and posterior segments. The grading scale for the anterior and posterior ocular segment used was as follows: 0=no evidence of cellular infiltrate; 1=a few cells infiltrated (mild)−focal; 2=a few cells infiltrated (mild)−diffuse; 3=moderate number of cells infiltrated; and 4=high amount of cellular infiltrate.
Differences were considered significant at P<0.05.

[7] = set-up: species or system New Zealand White rabbit; conditions: rabbit, in vivo
Experimental: In this study, the ocular tolerability and toxicokinetics of suprachoroidal administration of Ting triamcinolone acetonide (TA) using microneedle was determined, in the New Zealand White rabbit as an animal model.
On Day 0, New Zealand White (NZW) rabbits (4/sex/group/terminal time point, 48 total) were administered a single bilateral suprachoroidal injection of 100 μL of 4 ma TA (40 mg/mL) or vehicle, using a 33 g 750 μm microneedle. Clinical Observations, body weights, food consumption, slit lamp biomicroscopy with McDonald-Shadduck scoring, indirect ophthalmoscopy, intraocular pressure assessment (IOP), central corneal thickness (CCT), electroretinography (ERG), serum chemistry and hematology, and systemic exposure were assessed up to 13 weeks post-dose. Animals were sacrificed on Day 1 or Week 13 and were evaluated for macroscopic observations at necropsy and ocular histopathology. Four animals/sex were given an additional suprachoroidal administration on Day 90, and will be followed for an additional 13 weeks.

[8] = Group 3: LPS intravitreal/low dose (0.2 mg) TA SCS
[9] = Group 4: LPS intravitreal/high dose (2.0 mg) TA SCS
[10] = Group 5: LPS intravitreal/low dose (0.2 mg) TA IVT
[11] = Group 6 (printed: LPS intravitreal/high dose TA SCS)

Compound: CC1(C)O[C@@H]2C[C@H]3[C@@H]4CCC5=CC(=O)C=C[C@]5(C)[C@@]4(F)[C@@H](O)C[C@]3(C)[C@]2(C(=O)CO)O1 [TA, triamcinolone acetonide]
- safety profile (inflammation, edema, apoptosis, necrosis) [1]: no marked inflammation, edema, apoptosis, or necrosis at any time point
- systemic exposure to TA ([2]; 3.2 or 5.2 mg TA SCS, plasma): minimal
- difference between TA levels in sclera/choroid and in the vitreous ([2]; SCS TA): 6 orders of magnitude
- amount of TA retained in the retina, high dose vs low dose ([2]; by day 15, SCS): did not significantly differ
- amount of TA retained in the sclera/choroid, high dose vs low dose ([2]; by day 30, SCS): did not significantly differ
- order of TA in ocular matrixes (decreasing) ([2]; following SCS TA): SC>retina>ICB>VH>lens>AU
- sclera/choroid tissue concentration of TA ([2]; for longer than 28 days after a single SCS dose): greater than 100 μg/g tissue
- TA peak concentration in plasma ([2]; peaked on Day 1, both the high and low TA dose groups (5.2 and 3.2 mg SCS)): around 12 nglint
- adverse effects, increased IOP, procedural or acute drug toxicity ([3]; TA into the SCS, porcine eyes): no adverse effects, increased IOP, or evidence of procedural or acute drug toxicity
- tolerability of TA delivered to the SCS using microneedles ([3]; up to three days after injection in porcine eyes): tolerated with an acceptable safety profile
- ocular fundus images (vitreal cloudiness) ([4]; 0.2 mg TA IVT): only slightly improved over vehicle treated eyes
- ocular fundus images (vitreal cloudiness) ([4]; 0.2 mg TA SCS): less vitreal cloudiness and similar to the pre-treatment fundus appearance; also recorded: near pre-treatment appearance
- ocular fundus images (vitreal cloudiness) ([4]; 2.0 mg TA IVT): less vitreal cloudiness and similar to the pre-treatment fundus appearance; also recorded: near pre-treatment appearance
- ocular fundus images (vitreal cloudiness) ([4]; 2.0 mg TA SCS): less vitreal cloudiness and similar to the pre-treatment fundus appearance; also recorded: near pre-treatment appearance
- retinal thickness (SD-OCT), difference between groups [5]: no significant difference
- inflammation or histologic evidence of toxicity in the SCS ([6]; 2.0 mg TA SCS (Group 4)): no inflammation or histologic evidence of toxicity in the SCS
- histopathology, inner retinal layers and vitreous [6, 8]: moderate infiltrate of neutrophils
- histopathology, iris [6, 8]: mild neutrophilic infiltrate
- histopathology, anterior segment [6, 9]: normal
- histopathology, vitreous [6, 9]: very mild neutrophilic infiltration
- mean histologic inflammatory scores in the ocular posterior segment compared with Groups 2, 5 and 6 ([6]; Group 4: high dose TA SCS): significantly lower
- histopathology, anterior uvea [6, 10]: mild neurophilic infiltrate
- histopathology, vitreous [6, 10]: moderate to severe cellular infiltrate
- mean histologic inflammatory scores in the anterior segment compared with Groups 4 and 6 ([6]; Group 5: low dose TA IVT): significantly higher
- histopathology, anterior uvea [6, 11]: mild neutrophilic infiltrate
- histopathology, vitreous [6, 11]: moderate vitreal infiltrates
- mean histologic inflammatory scores compared with vehicle treated eyes (Group 2) ([6]; Group 6: high dose IVT TA): significantly lower
- tissue structural or toxicologic changes on histopathology ([6]; all groups, 0.2 or 2.0 mg TA SCS or IVT): None of the eyes examined in any group had evidence of substantial tissue structural or toxicologic changes
- IOP change related to the injection procedure [7]: decrease
- adverse effects related to the method of administration or 4 mg TA as assessed by histopathology [7]: no adverse effects
- central corneal thickness (CCT) [7]: slight decrease
- mean Cmax in plasma ([7]; 4 mg): 12 ng/mL
